pIC50: −log10 of the molar value.
Molecular target: T1, BRD4 bromodomain 1 (BD1) (Homo sapiens, UniProt O60885)
T1 construct: Selectivity against BRD4 bromodomain 1 (BD1), measured by HTRF; His; purchased Cayman 11720
Experiment: BRD4 (BD1)-H4 tetra-acetylated HTRF histone-binding assay
Summary of the method: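 Recombinant BRD4 BD1 (10 nM) was combined with 13.3 nM biotinylated tetra-acetylated H4 peptide, Eu-anti-His antibody and APC-streptavidin in HEPES buffer, pH 7. Compound was pin-transferred and plates incubated ≥2 h before HTRF reading (665/620 nm ratio). Percent inhibition was normalised to vehicle (maximum) and no-peptide (minimum) wells.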

O=C(NC1CCC1)c1ccc2nc(-c3cccc(NS(=O)(=O)NCCN4CCCCC4)c3)cn2c1 [Compound 93]
pIC50 (Table 1): < 4.30
pIC50 (Table 2): < 4.30

Reference: patent publication US20220274980A1, “PHARMACOLOGICAL INHIBITORS OF THE ENL YEATS DOMAIN” (priority 2019, published 2022)
